Reference: patent US20120178147A1, “MICROBIAL CULTURES AND METHODS FOR ANAEROBIC BIOREMEDIATION” (priority 2009, published 2012)

Test system: sediment microcosms
Experiment: Effect of TCC, TCS and BES on TCE dechlorination in sediment microcosms and cultures derived from them
Format: cell-based
Description: In this study, microcosm is defined as: anaerobic airtight serum bottles with sediment samples, anaerobic medium, electron donor, and a chlorinated compound used as an electron acceptor. Four microcosms were set up in the anaerobic glove chamber with H2 concentration of 3% (Coy laboratory products Inc. Grass Lake, Mich.). Ten gram of homogeneously mixed sediment from either core A or core D were transferred independently into a 160 ml sterile serum bottle, and 90 ml anaerobic media with vitamin solution and 2 mM lactate were added. One hundred μL of 20 mg/L TCC stock solution in methanol and 100 μL of 20 mg/L TCS stock solution were added by pipette (Eppendorf, Calif.) to two of the four microcosms. Microcosms were capped with thick black butyl rubber stoppers and aluminum crimps. 4.5 μL pure TCE was injected with airtight syringe (Hamilton Company, Reno, Nev.) into each serum bottle. On day 130, in order to inhibit methane production in the sediment microcosms, 25 mM BES was added in to sediment-A microcosm and sediment-D microcosm with TCC and TCS with airtight syringe (Hamilton Company, Reno, Nev.). Microcosms were stored in the dark and incubated at 30° C.
Production of Sediment-Free Cultures. To establish sediment-free cultures from core A and core D sediment microcosms, the microcosms were shaken vigorously, and the solids were allowed to settle down. Then, using 1-inch, 21-gauge sterile needles, […] liquid (10 ml) were transferred into 89 ml sterile medium with the following contents: anaerobic medium, ATCC vitamin mix, and vitamin B12, in 160-ml serum bottles. Then, 1 ml each of 500-mM lactate stock solution and 35-μL TCE stock solution (1 mol/L in methanol) were added to form a 100 ml culture in 160-ml serum bottle. Three sediment cultures were derived from each sediment microcosm, and 12 sediment-free cultures were produced (FIG. 1). For organizational purposes, we refer to the sediment-free cultures generated from sediment-A microcosms as SCA and the sediment free cultures generated from sediment-D microcosms as DehaloR̂2, in the figures herein, the DehaloR̂2 are referred to as “SCD”. Thus, the term “SCD” and DehaloR̂2 are used interchangeably herein as the composition “SCD” was renamed “DehaloR̂2” during the course of investigation. The sediment-free cultures were kept in the dark and incubated at 30° C. After all the chlorinated electron acceptors were consumed, the cultures were re-spiked with TCE and electron donors.
BES (2-bromoethanesulfonate) is an efficient inhibitor for the metabolism of methanogens in methanogenetic cultures because it is a structural analog and competitive inhibitor of coenzyme M, which is only found in methanogens (Dimarco et al., 1990; Sparling and Daniels, 1987). Different concentrations of BES have been used by researchers. […] In this study, in order to determine if the cause for incomplete reductive dechlorination was competition for electron donor between methanogens and TCE dechlorinating microorganisms in the microcosms, I added 25 mM BES, 70 μmol of TCE, and 5 mM lactate into two sediment microcosms, sediment-A and sediment-D with TCC and TCS. In two other sediment microcosms, I added 70 μmol of TCE and 5 mM lactate without BES.

## O=S(=O)(O)CCBr [BES, 2-bromoethanesulfonic acid]
25 mM BES
  effect on TCE reductive dechlorination: exerted some inhibition on TCE reductive dechlorination
25 mM BES, two sediment microcosms
  methane production: no methane was produced
Cultures from microcosms amended with TCC, TCS, BES
  effect on TCE dechlorination rates in sediment-free cultures: slow down TCE dechlorination rates
